US8796244B2, “Imidazopyridine derivatives as inhibitors of receptor tyrosine kinases” (Astex Therapeutics Ltd, priority 2008, dated 2014)
Counter-ions that a name gives are not always drawn.

These compounds were tested on parental wild-type Ba/F3 cells (assay: Ba/F3 (WT) cell proliferation assay (Alamar Blue)). Conditions: Mus musculus, BaF3, 72 h, read-out: BaF3 WT prolif (μM).
Assay type: cell-based
In the case of `Cc1cccnc1-c1ccn2c(-c3cccc(NC(=O)NCC(F)(F)F)c3)cnc2c1` [Example 104, 1-{3-[7-(3-Methyl-pyridin-2-yl)-imidazo[1,2-a]pyridin-3-yl]-phenyl}-3-(2,2,2-trifluoro-ethyl)-urea formate], the IC50 is reported as 0.4 µM.
`Nc1cccc(-c2ccn3c(-c4cccc(NC(=O)NCC(F)(F)F)c4)cnc3c2)n1` [Example 106, 1-{3-[7-(6-Amino-pyridin-2-yl)-imidazo[1,2-a]pyridin-3-yl]-phenyl}-3-(2,2,2-trifluoro-ethyl)-urea hydrochloride] showed an IC50 of 0.41 µM.
For `O=C(NCC(F)(F)F)Nc1cccc(-c2cnc3cc(-c4cccc(CCO)c4)ccn23)c1` [Example 107, 1-(3-{7-[3-(2-Hydroxy-ethyl)-phenyl]-imidazo[1,2-a]pyridin-yl}-phenyl)-3-(2,2,2-trifluoro-ethyl)-urea formate], the IC50 was 0.89 µM.

Same assay, conditions: Mus musculus, BaF3, read-out: BaF3 WT prolif, % inhibition
In the case of `O=C(NCC(F)(F)F)Nc1cccc(-c2cnc3cc(-c4nccc(N5CCNCC5)n4)ccn23)c1` [Compound 269], the inhibition at 3 µM is reported as 0%.
With `Nc1nc(-c2ccn3c(-c4cccc(NC(=O)NCC(F)(F)F)c4)cnc3c2)ncc1C(=O)O` [Compound 277] the inhibition at 10 µM was 0%.
`Cn1ccnc1C#Cc1ccn2c(-c3cccc(NC(=O)NCC(F)(F)F)c3)cnc2c1` [Compound 282] gave an inhibition at 10 µM of 23%.
`COC(=O)c1cnc(-c2ccn3c(-c4cccc(NC(=O)NCC(F)(F)F)c4)cnc3c2)nc1` [Compound 290] showed an inhibition at 1 µM of 16%.
`CC(=O)c1cnc(-c2ccn3c(-c4cccc(NC(=O)NCC(F)(F)F)c4)cnc3c2)nc1` [Compound 292] gave an inhibition at 10 µM of 38%.
`CC(F)(F)c1cnc(-c2ccn3c(-c4cccc(NC(=O)NCC(F)(F)F)c4)cnc3c2)nc1` [Compound 293] gave an inhibition at 3 µM of 36%.
Work on `O=C(NCC(F)(F)F)Nc1cc(Br)cc(-c2cnc3cc(-c4ccnc(C(F)(F)F)n4)ccn23)c1` [Compound 294] yielded an inhibition at 3 µM of 22%.
Work on `O=C(NCC(F)(F)F)Nc1cc(CO)cc(-c2cnc3cc(-c4ccnc(C(F)(F)F)n4)ccn23)c1` [Compound 295] yielded an inhibition at 10 µM of 30%.
With `N#Cc1cc(NC(=O)NCC(F)(F)F)cc(-c2cnc3cc(-c4ccnc(C(F)(F)F)n4)ccn23)c1` [Compound 299] the inhibition at 1 µM was 17%.
For `Nc1nc(-c2ccn3c(-c4cc(Cl)cc(NC(=O)NCC(F)(F)F)c4)cnc3c2)ncc1F` [Compound 300], the inhibition at 10 µM was 0%.
Work on `O=C(NCC(F)(F)F)Nc1cc(F)cc(-c2cnc3cc(-c4ncccn4)ccn23)c1` [Compound 302] yielded an inhibition at 10 µM of 0%.
`O=C(NCC(F)(F)F)Nc1cc(O)cc(-c2cnc3cc(-c4ccnc(C(F)(F)F)n4)ccn23)c1` [Compound 303] showed an inhibition at 10 µM of 0%.
For `Nc1nc(-c2ccn3c(-c4cc(F)cc(NC(=O)NCC(F)(F)F)c4)cnc3c2)ncc1F` [Compound 305], the inhibition at 10 µM was 6%.
Work on `CC(=O)c1cnc(-c2ccn3c(-c4cccc(NC(=O)NCC(F)(F)F)c4)cnc3c2)nc1N` [Compound 308] yielded an inhibition at 10 µM of 0%.
For `Nc1cnc(-c2ccn3c(-c4cccc(NC(=O)NCC(F)(F)F)c4)cnc3c2)nc1N` [Compound 312], the inhibition at 10 µM was 3%.
Work on `CNc1nc(-c2ccn3c(-c4cccc(NC(=O)NCC(F)(F)F)c4)cnc3c2)ncc1N` [Compound 313] yielded an inhibition at 10 µM of 18%.
`CCOC(=O)Nc1nc(-c2ccn3c(-c4cccc(NC(=O)NCC(F)(F)F)c4)cnc3c2)ncc1F` [Compound 315] was tested, and the inhibition at 10 µM was 35%.
Compound `Nc1nc(-c2ccn3c(-c4cccc(NC(=O)NCC(F)(F)F)c4)cnc3c2)ncc1OCCO` [Compound 316] has an inhibition at 10 µM of 0%.
`CC(C)c1cc(N)nc(-c2ccn3c(-c4cccc(NC(=O)NCC(F)(F)F)c4)cnc3c2)n1` [Compound 323] was tested, and the inhibition at 1 µM was 0%.
In the case of `COCc1cc(N)nc(-c2ccn3c(-c4cccc(NC(=O)NCC(F)(F)F)c4)cnc3c2)n1` [Compound 324], the inhibition at 10 µM is reported as 9.4%.
In the case of `Cc1nnc(-c2ccn3c(-c4cccc(NC(N)=O)c4)cnc3c2)o1` [Compound 328], the inhibition at 3 µM is reported as 34%.
In the case of `Nc1nc(-c2ccn3c(-c4cccc(NC(=O)NCC(F)(F)F)c4)cnc3c2)ncc1CO` [Compound 332], the inhibition at 10 µM is reported as 0%.
Work on `O=C(NCC(F)(F)F)Nc1cccc(-c2cnc3cc(-c4ncc(C(=O)O)cn4)ccn23)c1` [Compound 333] yielded an inhibition at 1 µM of 0%.
In the case of `COCc1cc(-c2ccn3c(-c4cccc(NC(=O)NCC(F)(F)F)c4)cnc3c2)nc(N)n1` [Compound 335], the inhibition at 10 µM is reported as 20%.
`Cc1cc2ncc(-c3cccc(NC(=O)NCC(F)(F)F)c3)n2cc1C` [Example 77, 1-[3-(6,7-Dimethyl-imidazo[1,2-a]pyridin-3-yl)-phenyl]-3-(2,2,2-trifluoro-ethyl)-urea formate] gave an inhibition at 10 µM of 53%.
`O=C(NCC(F)(F)F)Nc1cccc(-c2cnc3cc(-c4cnc(O)cn4)ccn23)c1` [Example 105, 1-{3-[7-(5-Hydroxy-pyrazin-2-yl)-imidazo[1,2-a]pyridin-3-yl]-phenyl}-3-(2,2,2-trifluoro-ethyl)-urea hydrochloride] gave an inhibition at 10 µM of 16%.

Same assay, conditions: Mus musculus, BaF3; 72 hours, Alamar Blue; read-out: BaF3 WT prolif
`CC(C)n1ccnc1C#Cc1ccn2c(-c3cccc(NC(=O)NCC(F)(F)F)c3)cnc2c1` [Compound 266] gave an IC50 of 1.4 µM.
Compound `Cn1ccnc1C#Cc1ccn2c(-c3cccc(NC(=O)NCC(F)(F)F)c3)cnc2c1` [Compound 282] has an IC50 of 2.8 µM.
Compound `CCOC(=O)c1cnc(-c2ccn3c(-c4cccc(NC(=O)NCC(F)(F)F)c4)cnc3c2)nc1N` [Compound 287] has an IC50 of 0.99 µM.
Compound `O=C(NCC(F)(F)F)Nc1cc(Cl)cc(-c2cnc3cc(-c4ccnc(C(F)(F)F)n4)ccn23)c1` [Compound 297] has an IC50 of 5.5 µM.
With `COc1cc(NC(=O)NCC(F)(F)F)cc(-c2cnc3cc(-c4ccnc(C(F)(F)F)n4)ccn23)c1` [Compound 298] the IC50 was 3 µM.
`O=C(NCC(F)(F)F)Nc1cc(-c2cnc3cc(-c4ncccn4)ccn23)cc(C(F)(F)F)c1` [Compound 301] was tested, and the IC50 was 2.81 µM.
`O=C(NCC(F)(F)F)Nc1cc(Cl)cc(-c2cnc3cc(-c4ncccn4)ccn23)c1` [Compound 309] was tested, and the IC50 was 2.3 µM.
For `CC(C)(C)OC(=O)NCC1CCN(c2ccc(-c3ccn4c(-c5cccc(NC(=O)NCC(F)(F)F)c5)cnc4c3)cn2)CC1` [Compound 318], the IC50 was 0.42 µM.
For `CC(C)(O)c1cccc(-c2ccn3c(-c4cccc(NC(=O)NCC(F)(F)F)c4)cnc3c2)c1` [Compound 320], the IC50 was 0.71 µM.
`Nc1cc(C(F)(F)F)nc(-c2ccn3c(-c4cccc(NC(=O)NCC(F)(F)F)c4)cnc3c2)n1` [Compound 322] was tested, and the IC50 was 1.2 µM.
In the case of `COCc1cc(-c2ccn3c(-c4cccc(NC(=O)NCC(F)(F)F)c4)cnc3c2)nc(N)n1` [Compound 335], the IC50 is reported as 0.74 µM.
Compound `CC(C)(C(=O)NC1CC1)n1cc(-c2ccn3c(-c4cccc(NC(=O)NCC(F)(F)F)c4)cnc3c2)cn1` [Example 71, N-Cyclopropyl-2-[4-(3-{3-[3-(2,2,2-trifluoro-ethyl)-ureido]-phenyl}-imidazo[1,2-a]pyridin-yl)-pyrazol-1-yl)-isobutyramide] has an IC50 of 1.5 µM.
Work on `Nc1nccnc1-c1ccn2c(-c3cccc(NC(=O)NCC(F)(F)F)c3)cnc2c1` [Example 84, 1-{3-[7-(3-Amino-pyrazin-2-yl)-imidazo[1,2-a]pyridin-3-yl]-phenyl}-3-(2,2,2-trifluoro-ethyl)-urea] yielded an IC50 of 1.4 µM.
For `O=C(NCC(F)(F)F)Nc1cccc(-c2cnc3cc(-c4cc(F)ccn4)ccn23)c1` [Example 103, 1-{3-[7-(4-Fluoro-pyridin-2-yl)-imidazo[1,2-a]pyridin-3-yl]-phenyl}-3-(2,2,2-trifluoro-ethyl)-urea], the IC50 was 0.078 µM.
Compound `O=C(NCC(F)(F)F)Nc1cccc(-c2cnc3cc(-c4nccc(N5CCC(O)CC5)n4)ccn23)c1` [Example 109, 1-(3-{7-[4-(4-Hydroxy-piperidin-1-yl)-pyrimidin-2-yl]-imidazo[1,2-a]pyridin-3-yl}-phenyl)-3-(2,2,2-trifluoro-ethyl)-urea] has an IC50 of 32 µM.
